Test results as given in patent US20070059364A1, “Active substance combination comprising a compound with npy receptor affinity and a compound with 5-ht6 receptor affinity” (Laboratorios Del Dr. Esteve S.A., priority 2003, published 2007).

SMILES | melting point
O=S(=O)(Nc1ccc2ccn(CCN3CCCC3)c2c1)c1c(Cl)nc2sccn12 [Example 12f, 6-Chloro-N-[1-[2-(pyrrolidin-1-yl)ethyl]-1H-indol-6-yl]-imidazo[2,1-b]thiazole-5-sulfonamide] | 53 to 57 °C
CN1CCC(c2c[nH]c3ccc(NS(=O)(=O)c4cccc5ccccc45)cc23)CC1.Cl [Example 13c, N-[3-(1-methylpiperidin-4-yl)-1H-indol-5-yl]naphthalene-1-sulphonamide hydrochloride] | 212 °C (dec.)
CN(C)CCn1ccc2cc(NS(=O)(=O)c3cccc(Br)c3)ccc21 [Example 13e, N-[1-(2-dimethylaminoethyl)-1H-indole-5-yl]-3-bromobenzenesulfonamide] | 114 to 116 °C
O=S(=O)(Nc1ccc2ccn(CCN3CCCC3)c2c1)c1ccc(-c2ccccc2)cc1 [Example 13f, 4-Phenyl-N-(1-(2-(pyrrolidin-1-yl)ethyl)-1H-indol-6-yl)-benzenesulfonamide] | 178 to 181 °C
CN1CCC(c2c[nH]c3ccc(NS(=O)(=O)c4ccc(Cl)s4)cc23)CC1 [Example 14c, N-[3-(1-methylpiperidin-4-yl)-1H-indol-5-yl]-5-chlorothiophene-2-sulphonamide] | 284 °C (dec.)
CN(C)CCn1ccc2cc(NS(=O)(=O)c3cccc([N+](=O)[O-])c3)ccc21 [Example 14e, N-[1-(2-dimethylaminoethyl)-1H-indole-5-yl]-3-nitrobenzenesulfonamide] | 138 to 140 °C
CN1CCC(c2c[nH]c3ccc(NS(=O)(=O)c4ccc(-c5ccccc5)cc4)cc23)CC1 [Example 15c, N-[3-(1-methylpiperidin-4-yl)-1H-indol-5-yl]-4-phenylbenzenesulphonamide] | 247 to 248 °C
CN(C)CCn1ccc2cc(NS(=O)(=O)Cc3ccccc3)ccc21 [Example 15e, N-[1-(2-dimethylaminoethyl)-1H-indole-5-yl]-1-phenylmethanesulfonamide] | 163 to 166 °C
O=S(=O)(Nc1ccc2ccn(CCN3CCCC3)c2c1)c1ccc(Oc2ccccc2)cc1 [Example 15f, 4-Phenoxy-N-(1-(2-(pyrrolidin-1-yl)ethyl)-1H-indol-6-yl)-benzenesulfonamide] | 59 to 62 °C
CN1CCC(c2c[nH]c3ccc(NS(=O)(=O)c4cccc5cccnc45)cc23)CC1 [Example 16c, N-[3-(1-methylpiperidin-4-yl)-1H-indol-5-yl]quinoline-8-sulphonamide] | 280 °C (dec.)
O=S(=O)(Nc1ccc2c(ccn2CCN2CCCC2)c1)c1ccc2ccccc2c1 [Example 16e, N-[1-(2-pyrrolidine-1-yl-ethyl)-1H-indole-5-yl]-naphthalene-2-sulfonamide] | 138 to 140 °C
CCN(CC)CCc1c[nH]c2ccc(NS(=O)(=O)c3ccc4ccccc4c3)cc12 [Example 17c, N-[3-(2-diethylaminoethyl)-1H-indol-5-yl]naphthalene-2-sulphonamide] | 172 to 173 °C
O=S(=O)(Nc1ccc2c(ccn2CCN2CCCC2)c1)c1cccc2ccccc12 [Example 17e, N-[1-(2-pyrrolidine-1-yl-ethyl)-1H-indole-5-yl]-naphthalene-1-sulfonamide] | 186 to 189 °C
Cc1c(S(=O)(=O)Nc2ccc3c(ccn3CCN3CCCC3)c2)sc2ccc(Cl)cc12 [Example 18e, N-[1-(2-pyrrolidine-1-yl-ethyl)-1H-indole-5-yl]-5-chloro-3-methylbenzo[b]thiophene-2-sulfonamide] | 156 to 158 °C
Cc1c(S(=O)(=O)Nc2ccc3[nH]cc(CN4CCN(C)CC4)c3c2)sc2ccc(Cl)cc12 [Example 19c, N-[3-(4-methylpiperazin-1-yl)methyl-1H-indol-5-yl]-5-chloro-3-methylbenzo[b]thiophene-2-sulphonamide] | 230 °C (dec.)
CN(C)CCn1ccc2cc(NS(=O)(=O)c3cc(Cl)c(Cl)s3)ccc21 [Example 20e, N-[1-(2-dimethylaminoethyl)-1H-indole-5-yl]-4,5-dichlorothiophene-2-sulfonamide] | 120 to 123 °C
CC(=O)c1ccc(S(=O)(=O)Nc2ccc3c(ccn3CCN(C)C)c2)cc1 [Example 21e, N-[1-(2-dimethylaminoethyl)-1H-indole-5-yl]-4-acetylbenzenesulfonamide] | 175 °C (dec.)
CN(C)CCn1ccc2cc(NS(=O)(=O)c3ccc(Br)cc3)ccc21 [Example 22e, N-[1-(2-dimethylaminoethyl)-1H-indole-5-yl]-4-bromobenzenesulfonamide] | 114 to 117 °C

Now from value to compound:

melting point | SMILES
141 to 144 °C | COc1ccc(S(=O)(=O)Nc2ccc3c(ccn3CCN(C)C)c2)cc1 [Example 23e, N-[1-(2-dimethylaminoethyl)-1H-indole-5-yl]-4-methoxybenzenesulfonamide]
60 to 64 °C | CN(C)CCn1ccc2cc(NS(=O)(=O)c3ccc([N+](=O)[O-])cc3)ccc21 [Example 25e, N-[1-(2-dimethylaminoethyl)-1H-indole-5-yl]-4-nitrobenzenesulfonamide]
138 to 140 °C | CN(C)CCn1ccc2cc(NS(=O)(=O)c3ccc(F)cc3)ccc21 [Example 26e, N-[1-(2-dimethylaminoethyl)-1H-indole-5-yl]-4-fluorobenzenesulfonamide]
68 to 70 °C | CCN(CC)CCn1ccc2cc(NS(=O)(=O)c3c(Cl)nc4sccn34)ccc21 [Example 27e, N-[1-(2-diethylaminoethyl)-1H-indole-5-yl]-6-chloroimidazo[2,1-b]thiazole-5-sulfonamide]
148 to 152 °C | Cc1c(S(=O)(=O)Nc2ccc3[nH]cc(CN(C)C)c3c2)sc2ccc(Cl)cc12 [Example 30c, N-[3-dimethylaminomethyl-1H-indol-5-yl]-5-chloro-3-methylbenzo[b]thiophene-2-sulphonamide]
133 to 135 °C | CCN(CC)CCn1ccc2cc(NS(=O)(=O)c3cccc4ccccc34)ccc21 [Example 30e, N-(1-(2-(diethylamino)ethyl)-1H-indol-5-yl)-naphthalene-1-sulfonamide]
203 to 205 °C | Cc1c(S(=O)(=O)Nc2ccc3c(c2)cc(C)n3CCN(C)C)sc2ccc(Cl)cc12 [Example 32e, 5-chloro-N-(1-(2-(dimethylamino)ethyl)-2-methyl-1H-indol-5-yl)-3-methylbenzo[b]thiophene-2-sulfonamide]
183 to 184 °C | Cc1cc2cc(NS(=O)(=O)c3cccc4ccccc34)ccc2n1CCN(C)C [Example 34e, N-(1-(2-(dimethylamino)ethyl)-2-methyl-1H-indol-5-yl)-naphthalene-1-sulfonamide]
182 to 183 °C | Cc1cc2cc(NS(=O)(=O)c3c(Cl)nc4sccn34)ccc2n1CCN(C)C [Example 35e, 6-chloro-N-(1-(2-(dimethylamino)ethyl)-2-methyl-1H-indol-5-yl)imidazo[2,1-b]thiazole-5-sulfonamide]
176 to 177 °C | Cc1cc2cc(NS(=O)(=O)c3ccc(-c4ccccc4)cc3)ccc2n1CCN(C)C [Example 36e, N-(1-(2-(dimethylamino)ethyl)-2-methyl-1H-indol-5-yl)-4-phenylbenzenesulfonamide]
142 to 144 °C | Cc1c(S(=O)(=O)Nc2ccc3[nH]cc(C4CCN5CCCC5C4)c3c2)sc2ccc(Cl)cc12 (stereo not shown) [Example 38c, N-[3-(octahydroindolizin-7-yl)-1H-indol-5-yl]-5-chloro-3-methylbenzo[b]thiophene-2-sulphonamide]
147 to 149 °C | Cc1cc2cc(NS(=O)(=O)c3ccc(Oc4ccccc4)cc3)ccc2n1CCN(C)C [Example 38e, N-(1-(2-(dimethylamino)ethyl)-2-methyl-1H-indol-5-yl)-4-phenoxy-benzenesulfonamide]
147 to 149 °C | Cc1cc2cc(NS(=O)(=O)c3cc(Cl)cc(Cl)c3)ccc2n1CCN(C)C [Example 39e, 3,5-dichloro-N-(1-(2-(dimethylamino)ethyl)-2-methyl-1H-indol-5-yl)-benzenesulfonamide]
167 to 169 °C | Cc1cc2cc(NS(=O)(=O)c3csc4ccccc34)ccc2n1CCN(C)C [Example 40e, N-(1-(2-(dimethylamino)ethyl)-2-methyl-1H-indol-5-yl)benzo[b]thiophene-3-sulfonamide]
99 to 102 °C | CN1CCN(Cc2c[nH]c3ccc(NS(=O)(=O)Cc4ccccc4)cc23)CC1 [Example 41c, N-[3-(4-methylpiperazin-1-yl)methyl-1H-indol-5-yl]-α-toluenesulphonamide]
62 to 75 °C | CCN(CC)CCn1ccc2cc(NS(=O)(=O)c3csc4ccccc34)ccc21 [Example 41e, N-(1-(2-(diethylamino)ethyl)-1H-indol-5-yl)benzo[b]thiophene-3-sulfonamide]
128 to 130 °C | CCN(CC)CCCc1c[nH]c2ccc(NS(=O)(=O)c3ccc4ccccc4c3)cc12 [Example 42c, N-[3-(3-diethylaminopropyl)-1H-indol-5-yl]naphthalene-2-sulphonamide]
61 to 72 °C | CN(C)CCn1ccc2cc(NS(=O)(=O)c3csc4ccccc34)ccc21 [Example 42e, N-(1-(2-(dimethylamino)ethyl)-1H-indol-5-yl)benzo[b]thiophene-3-sulfonamide]
156 to 158 °C | CCN(CC)CCCc1c[nH]c2ccc(NS(=O)(=O)c3sc4ccc(Cl)cc4c3C)cc12 [Example 43c, N-[3-(3-diethylaminopropyl)-1H-indol-5-yl]-5-chloro-3-methylbenzo[b]thiophene-2-sulphonamide]
82 to 92 °C | Cc1c(S(=O)(=O)Nc2ccc3c(ccn3CCCN3CCCCC3)c2)sc2ccc(Cl)cc12 [Example 43e, 5-chloro-3-methyl-N-(1-(3-(piperidin-1-yl)propyl)-1H-indol-5-yl)benzo[b]thiophene-2-sulfonamide]
105 to 107 °C | O=S(=O)(Nc1ccc2c(ccn2CCCN2CCCCC2)c1)c1cccc2ccccc12 [Example 45e, N-(1-(3-(piperidin-1-yl)propyl)-1H-indol-5-yl)naphthalene-1-sulfonamide]
148 to 150 °C | O=S(=O)(Nc1ccc2c(ccn2CCCN2CCCCC2)c1)c1ccc(-c2ccccc2)cc1 [Example 47e, 4-phenyl-N-(1-(3-(piperidin-1-yl)propyl)-1H-indol-5-yl)benzenesulfonamide]
